Our source for the GI50 and TGI values is PubChem BioAssay (NCI).

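These data come from cells grown in 96-well plates and exposed to compound for 48 hours at five concentrations. At the GI50, growth is halved. TGI: total growth inhibition.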 A value given as a limit tells only on which side of the number the result lay.

Among the test systems are A549 NSCLC; ACHN renal; CCRF-CEM leukemia; HOP-92 NSCLC; HS 578T breast; IGROV1 ovarian; MCF7 breast; NCI/ADR-RES ovarian; OVCAR-4 ovarian; SK-OV-3 ovarian.
What all share (experiment): growth of human tumour cells (NCI), 48 h

For `O=C(OCc1ccc2c(Cl)cc(Cl)c(O)c2n1)N1CCN(C(=O)c2cc3cc(F)ccc3[nH]2)CC1`, the GI50 with A549 NSCLC is 7.03 µM; in the assay with ACHN renal it was 0.611 µM; in the assay on CCRF-CEM leukemia, 0.876 µM; with HOP-92 NSCLC, 3.1 µM; in the assay on HS 578T breast, 1.13 µM; in the assay on IGROV1 ovarian it was 1.99 µM. The GI50 in the assay with MCF7 breast is 0.404 µM; in the assay on NCI/ADR-RES ovarian, 0.331 µM; in the assay with OVCAR-4 ovarian, 5.37 µM; in the assay on SK-OV-3 ovarian, 3.6 µM. Further, the TGI in the assay with A549 NSCLC, with ACHN renal, in the assay with CCRF-CEM leukemia, with HOP-92 NSCLC, in the assay on HS 578T breast and in the assay on IGROV1 ovarian was greater than 100 µM each time. Also, the TGI with MCF7 breast, in the assay on OVCAR-4 ovarian and in the assay on SK-OV-3 ovarian was greater than 100 µM throughout.
In the case of `Cc1ncc([N+](=O)[O-])n1CCNS(=O)(=O)CCCn1ncnc1[N+](=O)[O-]`, the TGI with A549 NSCLC, in the assay with ACHN renal, with CCRF-CEM leukemia, with HOP-92 NSCLC, with HS 578T breast and with IGROV1 ovarian was greater than 100 µM throughout. Moreover, the TGI in the assay with MCF7 breast, with NCI/ADR-RES ovarian, in the assay on OVCAR-4 ovarian and in the assay on SK-OV-3 ovarian was greater than 100 µM each time.
For the molecule `O=C(CSC(c1ccccc1)c1ccccc1)N/N=C/c1ccco1`, the GI50 with A549 NSCLC is 1.54 µM; in the assay on ACHN renal it was 1.82 µM; in the assay on CCRF-CEM leukemia it was 2.48 µM; with HOP-92 NSCLC, 1.44 µM; in the assay with HS 578T breast, 2.23 µM; with MCF7 breast it was 1.74 µM. Also, the GI50 with OVCAR-4 ovarian is 1.73 µM; in the assay with SK-OV-3 ovarian it was 28.3 µM. The TGI was found to be 5.28 µM in the assay with A549 NSCLC; 3.62 µM in the assay with ACHN renal; 22 µM in the assay on CCRF-CEM leukemia; 2.97 µM in the assay on HOP-92 NSCLC; 5.82 µM in the assay with HS 578T breast; 1.41 µM with IGROV1 ovarian. Moreover, the TGI with MCF7 breast was greater than 5.22 µM; in the assay with NCI/ADR-RES ovarian, 1.24 µM; in the assay with OVCAR-4 ovarian, 6.49 µM; with SK-OV-3 ovarian, greater than 73 µM.
In the case of `O=C(NCc1ccc(S(=O)(=O)c2cc(F)cc(F)c2)cc1)c1ccc2nccn2c1`, the GI50 with A549 NSCLC was 9.59 µM; with ACHN renal it was 21.1 µM; with HOP-92 NSCLC, 22.5 µM; in the assay with HS 578T breast, 20.5 µM; in the assay on IGROV1 ovarian, 12.1 µM; in the assay on MCF7 breast it was 8.69 µM. For the same molecule, the GI50 in the assay on NCI/ADR-RES ovarian is 5.08 µM; with OVCAR-4 ovarian, 11.3 µM; in the assay with SK-OV-3 ovarian, 17.1 µM. The TGI with A549 NSCLC is greater than 100 µM; in the assay on ACHN renal, greater than 100 µM; in the assay on CCRF-CEM leukemia, greater than 100 µM; in the assay with HOP-92 NSCLC, greater than 100 µM; in the assay on HS 578T breast it was 80.1 µM; in the assay on IGROV1 ovarian, greater than 80.4 µM. For the same molecule, the TGI in the assay with MCF7 breast is greater than 100 µM; in the assay on NCI/ADR-RES ovarian, greater than 100 µM; in the assay with OVCAR-4 ovarian it was greater than 77.3 µM; in the assay on SK-OV-3 ovarian it was 60.6 µM.
`N#Cc1ccc(OC(=O)Nc2ccc(Cl)c(Cl)c2)cc1`: the GI50 in the assay on A549 NSCLC was 3.43 µM; in the assay with ACHN renal, 2.97 µM; in the assay on CCRF-CEM leukemia, 3.08 µM; in the assay on HOP-92 NSCLC it was 1.9 µM; in the assay on HS 578T breast, 5.02 µM; with IGROV1 ovarian, 4.04 µM. In addition, the GI50 in the assay on MCF7 breast was 2.6 µM; in the assay with NCI/ADR-RES ovarian, 3.79 µM; in the assay with OVCAR-4 ovarian it was 2.24 µM; in the assay on SK-OV-3 ovarian, 5.98 µM. For the same molecule, the TGI with A549 NSCLC is greater than 100 µM; in the assay with ACHN renal it was 14.5 µM; in the assay with CCRF-CEM leukemia, 16.1 µM; in the assay with HOP-92 NSCLC it was 7.34 µM; in the assay on HS 578T breast, 28.9 µM; in the assay with IGROV1 ovarian, greater than 100 µM. Moreover, the TGI in the assay with MCF7 breast was 11.6 µM; with NCI/ADR-RES ovarian, greater than 100 µM; with OVCAR-4 ovarian, 17.7 µM; with SK-OV-3 ovarian, 51.2 µM.
As for `Nc1nc(N)nc(CCCc2nc(N)nc(N)n2)n1`, the TGI in the assay on A549 NSCLC, in the assay on ACHN renal, with CCRF-CEM leukemia, in the assay with HOP-92 NSCLC, in the assay with HS 578T breast and with IGROV1 ovarian was greater than 100 µM in each case. For the same molecule, the TGI in the assay on MCF7 breast, in the assay with NCI/ADR-RES ovarian, with OVCAR-4 ovarian and in the assay on SK-OV-3 ovarian was greater than 100 µM throughout.
Turning to `Nc1ccccc1SC1CC(=O)N(c2ccc(Cl)c(Cl)c2)C1=O` (stereo unspecified), the GI50 in the assay on A549 NSCLC is 19.5 µM; in the assay on ACHN renal, 19.4 µM; in the assay with CCRF-CEM leukemia, 40.6 µM; in the assay on HOP-92 NSCLC, 14.9 µM; in the assay with HS 578T breast it was 12.5 µM; with IGROV1 ovarian, 31 µM. Also, the GI50 in the assay on MCF7 breast is 27.1 µM; with NCI/ADR-RES ovarian it was 17.1 µM; in the assay with OVCAR-4 ovarian it was 19.2 µM; in the assay with SK-OV-3 ovarian, 17.6 µM. Also, the TGI in the assay with A549 NSCLC is greater than 100 µM; with ACHN renal, 74.9 µM; with CCRF-CEM leukemia it was greater than 100 µM; in the assay with HOP-92 NSCLC it was 42.1 µM; in the assay on HS 578T breast, 49.5 µM; in the assay on IGROV1 ovarian, greater than 100 µM. Also, the TGI with MCF7 breast is greater than 100 µM; in the assay with NCI/ADR-RES ovarian, greater than 100 µM; in the assay on OVCAR-4 ovarian it was greater than 100 µM; with SK-OV-3 ovarian it was 54 µM.
`Cc1nn(C(=O)c2ccc(Cl)cc2)c2c1C(c1ccc(O)cc1)SC(N)=N2` (stereo unspecified): the TGI in the assay on A549 NSCLC, with ACHN renal, in the assay with CCRF-CEM leukemia, in the assay on HOP-92 NSCLC, in the assay with HS 578T breast and in the assay with IGROV1 ovarian was greater than 10 µM each time. Moreover, the TGI in the assay on MCF7 breast, in the assay with NCI/ADR-RES ovarian, with OVCAR-4 ovarian and with SK-OV-3 ovarian was greater than 10 µM in each case.
In the case of `C[C@H]1CCC/C=C/[C@@H]2C[C@H](O)C[C@H]2[C@H](O)[C@@H](SCC(O)CO)CC(=O)O1` (stereo partly specified), the GI50 with A549 NSCLC is 34.4 µM; in the assay with ACHN renal, 25.7 µM; in the assay with CCRF-CEM leukemia, 34.1 µM; in the assay on HOP-92 NSCLC, 37.7 µM; in the assay with HS 578T breast it was 9.52 µM; with IGROV1 ovarian it was 37.2 µM. For the same molecule, the GI50 is 20.5 µM in the assay with MCF7 breast, greater than 100 µM with NCI/ADR-RES ovarian, 4.17 µM with OVCAR-4 ovarian and 34.7 µM in the assay on SK-OV-3 ovarian. Also, the TGI in the assay with A549 NSCLC is greater than 100 µM; in the assay on ACHN renal, 92.8 µM; in the assay on CCRF-CEM leukemia, greater than 100 µM; with HOP-92 NSCLC, greater than 100 µM; with HS 578T breast, greater than 100 µM; in the assay with IGROV1 ovarian, greater than 100 µM. Besides, the TGI is 47.8 µM with MCF7 breast, greater than 100 µM with NCI/ADR-RES ovarian, greater than 100 µM with OVCAR-4 ovarian and greater than 100 µM with SK-OV-3 ovarian.
